Experiment: Effective charge density of the cationic compound (measured)
Format: physicochemical

Compound: CCCCCCCC/C=C\CCCCCCCC(=O)NCC[N+]1=C(CCCCCCC/C=C\CCCCCCCC)N(C)CC1.COS(=O)(=O)[O-] [cationic softener, 1-methyl-2-Noroleyl-3-oleyl amidoethyl imidazolinium methosulfate]
- effective charge density (measured): about 1300 microequivalents/gram

Source: patent US20040009210A1, “Wound management products incorporating cationic compounds” (Kimberly-Clark Worldwide, Inc., priority 2002, published 2004)
